Data set [1] can be described thus: Dynamic vapor sorption/desorption (DVS). The class given is physicochemical. The note with it: for weight gain, adsorption: 5%-95% RH; for weight loss, desorption: 95%-5% RH. As to the method:
Moisture sorption/desorption data were collected on a VTI SGA-100 Vapor Sorption Analyzer. Sorption and desorption data were collected over a range of 5% to 95% relative humidity (RH) at 10% RH intervals under a nitrogen purge. Samples were not dried prior to analysis. Equilibrium criteria used for analysis were less than 0.0100% weight change in 5 minutes, with a maximum equilibration time of 3 hours if the weight criterion was not met. Data were not corrected for the initial moisture content of the samples. Sodium chloride and polyvinypyrrolidine were used as calibration standards.

The nature of data set [2]: Approximate solubility, solvent addition method. The class given is physicochemical. Particulars: ambient temperature. The procedure:
A weighed sample of SEQ ID NO:1 (a polypeptide of amino acids F-L-P—S) was treated with aliquots of the test solvent at ambient temperature. Complete dissolution of the test material was determined by visual inspection. Solubility was estimated based on the total solvent used to provide complete dissolution. The actual solubility may be greater than the value calculated because of the use of solvent aliquots that were too large or due to a slow rate of dissolution. […] If complete dissolution was achieved as a result of only one aliquot addition, the solubility is expressed as “greater than”.

Results on one compound are retold here after patent US8217141B2, “Crystalline and amorphous forms of peptide” (Neopro Labs, LLC, priority 2007, dated 2012).

Where a SMILES comes first, the peptide text is derived from it.

What is called solubility is how much of the substance goes into solution per volume. High values mean much dissolved substance, low ones little dissolved substance. As to `CC(C)CC(NC(=O)C(N)Cc1ccccc1)C(=O)N1CCCC1C(=O)NC(CO)C(=O)O` (centres unmarked) [SEQ ID NO: 1] (H-FLPS-OH; configuration not given here), the “weight gain, adsorption” value is given as 5%-95% RH; 25.0 w % (gain), in data set [1] and 25.0 w % in data set [1] (listed as SEQ ID NO:1). Moreover, the “weight loss, desorption” value was 95%-5% RH; 28.2 w % (loss) in data set [1] and 28.2 w % in data set [1] (listed as SEQ ID NO:1). Moreover, the “final weight loss after the desorption step” value in data set [1] (at ~5% RH, relative to original weight) is 4.4%. For the same compound, in data set [1] (on equilibration at ~5% RH, as received material), the initial weight loss stood at 1.3%. For the same compound, the “weight gain on the sorption step” value in data set [1] (up to ~95% RH, relative to original weight) is reported as “approximately 23.7%”. For the same compound, the solubility in data set [2] (1-Butanol) is no less than 43 mg/mL; in data set [2] (2-Butanone) it was no less than 20 mg/mL; in data set [2] (2-Propanol), no less than 20 mg/mL; in data set [2] (Acetone) it was no less than 40 mg/mL; in data set [2] (Acetonitrile (ACN)) it was no less than 19 mg/mL; in data set [2] (Chloroform) it was no more than 1.9 mg/mL. The solubility is no less than 20 mg/mL in data set [2] (Dichloromethane (DCM)); no less than 52 mg/mL in data set [2] (Ethanol (EtOH)); no less than 20 mg/mL in data set [2] (Ethyl acetate (EtOAc)); no more than 2 mg/mL in data set [2] (Heptane); no more than 2.7 mg/mL in data set [2] (Isopropyl ether); no less than 50 mg/mL in data set [2] (Methanol (MeOH)). For the same compound, the solubility in data set [2] (Pentane) is no more than 2 mg/mL; in data set [2] (Tetrahydrofuran (THF)), no less than 44 mg/mL; in data set [2] (Toluene), no more than 3.6 mg/mL; in data set [2] (Water, visual inspection) it was no less than 60 mg/mL.
